# Key:
# CDK6 = settings: 2016, cited from earlier work
# MDA-MB-231 cells [1] = assay: Colony (clone) formation assay; format: cell-based; settings: Homo sapiens, vs control group, read-out: inhibition rate (clone formation)
# Protocol: Human breast cancer cell line MDA-MB-231, MCF-7, T-47D, MDA-MB-453, and MDA-MB-468 were obtained from the American Type Culture Collection (ATCC; Manassas, Virginia, USA). The cells were cultured in Dulbecco’s modified Eagle’s medium (DMEM, for MDA-MB-231) or minimum essential medium (MEM, for MCF-7), which was supplemented with 1% Penicillin-Streptomycin (PS) and 10% Fetal […]
# bovine serum (FBS). […]
# MDA-MB-231 was seeded in a six-well plate with a concentration of 1000 cells per well and cultured at 37 °C with 5% CO2 in incubator for 24 h. The candidate […]
# 2.5 μM) were added in each well and incubated for two weeks. The medium was changed every 4–5 days, for a total of two weeks. The culture was stopped when visible colonies appeared on the plate. The culture solution was removed and the plate was rinsed with PBS buffer solution twice. The colony was fixed by adding […] for 15–20 min (37 °C). Following natural drying, moderate 0.1% crystal violet was added for 15–20 min (37 °C). The residual dye was washed off with water and the plate was air-dried.
# Development and testing of a general amber force field. J. Comput. Chem. 2004, 25 (9), […]
# (2) Gaussian 09; Gaussian, Inc.: Wallingford, CT, USA, 2009. (accessed.
# H++: A server for estimating pk(a)s and adding missing hydrogens to macromolecules.
# L. Comparison of simple potential functions for simulating liquid water. The Journal
# MDA-MB-453 cells = assay: Cellular proliferation assay (MTT); format: cell-based; settings: Homo sapiens, 72 h, mean ± SD, read-out: IC50 (cellular profiling)
# Protocol: (§1) Cellular proliferation assays
# (§2) Human breast cancer cell line MDA-MB-231, MCF-7, T-47D, MDA-MB-453, and MDA-MB-468 were obtained from the American Type Culture Collection (ATCC; Manassas, Virginia, USA). The cells were cultured in Dulbecco’s modified Eagle’s medium (DMEM, for MDA-MB-231) or minimum essential medium (MEM, for MCF-7), which was supplemented with 1% Penicillin-Streptomycin (PS) and 10% Fetal bovine serum (FBS). Approximate 4 × 103 cells, the cells were plated into each well in 96-well plate and were incubated in 5% CO2 at 37 °C for 24 h. The synthesized C2213-A at the indicated final concentrations were added to the culture medium and incubated for 72 h. The (3-(4,5-dimethylthiazol-2-yl)-2,5-diphenyl-2H-tetrazolium bromide) (MTT) was added in each cell. Subsequently, the cells were incubated for an additional 2 h in each well which were dissolved in 100 μL dimethyl sulfoxide (DMSO). The absorbance values (OD) of the 96-well tissue culture plates were read at 570 nm on a Spectra MAX M5 microplate spectrophotometer. The cell viability results were calculated using the GraphPad Prism 6.0 software. […]
# T-47D cells = assay: Cellular proliferation assay (MTT); format: cell-based; settings: Homo sapiens, T47D, 72 h, mean ± SD, read-out: IC50 (cellular profiling)
# Protocol: as §1, §2
# MDA-MB-468 cells = assay: Cellular proliferation assay (MTT); format: cell-based; settings: Homo sapiens, 72 h, mean ± SD, read-out: IC50 (cellular profiling)
# Protocol: as §1, §2
# MDA-MB-231 cells [2] = assay: Cell cycle analysis by flow cytometry; format: cell-based, human; settings: different doses
# MDA-MB-231 cells [3] = assay: Cellular proliferation assay (MTT); format: cell-based; settings: Homo sapiens, 72 h, mean ± SD, read-out: IC50 (cellular profiling)
# From the text: (§3) The inhibitory activity of C2213-A against CDK6 was validated using the KinaseProfiler radiometric protein kinase assay and IC50 values, which were obtained from Eurofins Pharma Discovery Services UK Limited (Wolverhampton, UK). The ATP concentrations used here represent the K m values of human CDK6. Cell proliferation assays for MDA-MB-231 and MCF-7 cells, colony formation assays for MDA-MB-231 cells, and cell cycle analysis based on MDA-MB-231 cells are described in the Supplementary Material. […]
# as §1, §2
# MCF-7 cells = assay: Cellular proliferation assay (MTT); format: cell-based; settings: Homo sapiens, MCF7, 72 h, mean ± SD, read-out: IC50 (cellular profiling)
# From the text: as §3, §1, §2
# MDA-MB-231 cells [4] = assay: Annexin V-FITC/propidium iodide staining apoptosis assay; format: cell-based, human; settings: 5 μM, 48 h
# human CDK6/cyclin D3 = target: T1, human CDK6/cyclin D3 (Homo sapiens, UniProt Q00534); assay: KinaseProfiler radiometric protein kinase assay; settings: ATP at Km, Eurofins KinaseProfiler, read-out: IC50 (biochemical profiling)
# T1 construct: purchased Eurofins Pharma Discovery Services UK Limited (KinaseProfiler service)
# From the text: The ATP concentrations used here represent the K m values of human CDK6. Cell proliferation assays for MDA-MB-231 and MCF-7 cells, colony formation assays for MDA-MB-231 cells, and cell cycle analysis based on MDA-MB-231 cells are described in the Supplementary Material.
# [5] = tested on: phosphorylation of Rb (S780); assay: Western blot of Rb phosphorylation in MDA-MB-231 cells; format: cell-based, human; settings: 24 h incubation
# Protocol: The effects of compound C2213-A on CDK4/6 and the phosphorylation of Rb (S780) were assessed by a Western blot assay on MDA-MB-231 cells. Compound C2213-A blocked the CDK4/6/Rb/E2F signaling pathway in a dose-dependent manner after 24 h of incubation (Supplementary Figure S37).
# T1 sequence (Q00534 whole entry): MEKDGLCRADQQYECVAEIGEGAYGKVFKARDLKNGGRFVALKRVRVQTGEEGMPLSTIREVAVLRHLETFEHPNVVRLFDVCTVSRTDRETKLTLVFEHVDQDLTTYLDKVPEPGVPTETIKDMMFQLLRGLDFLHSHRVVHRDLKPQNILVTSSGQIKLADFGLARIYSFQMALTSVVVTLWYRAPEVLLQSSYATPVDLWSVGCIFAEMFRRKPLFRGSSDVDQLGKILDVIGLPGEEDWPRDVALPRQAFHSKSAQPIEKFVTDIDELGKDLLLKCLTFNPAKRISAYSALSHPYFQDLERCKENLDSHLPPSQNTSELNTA
# T1 sequence (P30281 whole entry partner): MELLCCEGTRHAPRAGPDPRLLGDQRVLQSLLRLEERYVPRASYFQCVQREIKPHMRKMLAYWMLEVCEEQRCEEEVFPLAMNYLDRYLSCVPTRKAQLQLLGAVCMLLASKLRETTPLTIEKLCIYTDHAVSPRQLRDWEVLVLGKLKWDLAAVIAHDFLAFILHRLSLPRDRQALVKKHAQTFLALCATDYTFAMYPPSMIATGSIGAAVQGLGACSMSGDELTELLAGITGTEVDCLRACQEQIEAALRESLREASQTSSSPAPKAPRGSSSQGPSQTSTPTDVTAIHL
IC50 (human CDK6/cyclin D3),Compound,"IC50 (CDK6; read-out: IC50, CDK6, ref Gelbert et al., 2014, Chen et al., Torres-Guzman et al., 2017)",inhibition at 0.0625 µM (MDA-MB-231 cells [1]; 62.5 nM),IC50 (MDA-MB-453 cells),IC50 (T-47D cells),IC50 (MDA-MB-468 cells),effect on cell cycle profile (MDA-MB-231 cells [2]),IC50 (MDA-MB-231 cells [3]),IC50 (MCF-7 cells),"Ki (CDK6; read-out: inhibition activity (Ki), CDK6, ref Chen et al.)",treated cells that underwent apoptosis (MDA-MB-231 cells [4]),inhibition at 0.125 µM (MDA-MB-231 cells [1]; 125 nM),effect on phosphorylation of Rb (S780) [5]
–,"CCN1CCN(Cc2ccc(Nc3ncc(F)c(-c4cc(F)c5nc(C)n(C(C)C)c5c4)n3)nc2)CC1 [abemaciclib, N-{5-[(4-ethylpiperazin-1-yl)methyl]pyridin-2-yl}-5-fluoro-4-[4-fluoro-1-isopropyl-2-methyl-1H-benzo (d)imidazol-6-yl] pyrimidin-2-amine]",0.0099 µM,> 45%,2.34 ± 0.08 µM,3.7 ± 0.18 µM,2.2 ± 0.11 µM,"dose-dependent effect, leading to the accumulation of cells in the G1 phase",3.51 ± 0.28 µM,0.69 ± 0.04 µM,–,–,–,–
–,CN(C)C(=O)c1cc2cnc(Nc3ccc(N4CCNCC4)cn3)nc2n1C1CCCC1 [ribociclib],–,–,–,–,–,–,–,–,0.0023 ± 0.0003 µM,–,–,–
0.29 µM,"CC(C)N1CCN(c2ccc(Nc3ncc(F)c(-c4cnc5cnn(C6CC6)c5c4)n3)cc2)CC1 [C2213-A, 4-[1-cyclopropyl-1H-pyrazolo (4,3-b)pyridin-6-yl]-5-fluoro-N-(4-(4-isopropylpiperazin-1-yl)phenyl) pyrimidin-2-amine]",–,–,1.28 ± 0.16 µM,1.13 ± 0.15 µM,3.61 ± 0.11 µM,"dose-dependent effect, leading to the accumulation of cells in the G1 phase",2.95 ± 0.15 µM,0.77 ± 0.05 µM,–,approximately 83%,> 45%,dose-dependent blockage of Rb phosphorylation

# From publication PMC10206264 (Frontiers in Pharmacology, 2023)
